What was measured:
[1] = Relative bioavailability study (clinical study A), plasma pharmacokinetics of ticagrelor and AR-C124910XX; type: in vivo, healthy male and female subjects
Procedure: A relative bioavailability study (hereafter referred to as clinical study A) compared the orodispersible tablet of Example 7, administered with water (after oral dispersion) and without water, to a film-coated tablet containing 90 mg of ticagrelor. In clinical study A the orodispersible tablet was also suspended in water and administered through a nasogastric tube and compared to the film-coated tablet.
This study was an open-label, randomised, four-period, four-treatment, crossover study in healthy male and female of non-childbearing potential subjects, performed at a single study centre. The study was comprised of: • A screening period of maximum 21 days; • Four treatment periods during which subjects were resident prior to the evening meal the night before dosing with ticagrelor (Day −1) until at least 48 hours after dosing; discharged on the morning of Day 3; and • A final visit within 5 to 10 days after the last administration of ticagrelor.
Subjects received single doses of ticagrelor in 4 different ways under fasted conditions. Following an overnight fast of at least 10 hours, each subject received a single dose of each treatment on 4 occasions, respectively.
The PK parameters were assessed for ticagrelor (parent) and its active metabolite AR-C124910XX based on plasma concentrations.
Pharmacokinetic parameters were summarised for each treatment using descriptive statistics. Where possible, the following descriptive statistics were presented: n, geometric mean, geometric CV, arithmetic mean, arithmetic standard deviation, median, minimum and maximum. For tmax, only n, median, minimum and maximum were presented.
Bioavailability comparison of treatments A, B and C (test product) and D (reference product) were assessed on the ratio of log-transformed Cmax, AUC0-t, and AUC of both ticagrelor and AR-C124910XX using a 2-sided 90% confidence interval (CI) approach based on an analysis of variance (ANOVA) model including fixed effects for treatment, sequence, period and subject within sequence.
All PK parameters were log-transformed prior to analysis. The estimated treatment differences and the 90% CIs on the log scale were back transformed to obtain the geometric mean ratios for each pair of treatments.

[2] = Focused Beam Reflectance Measurement (FBRM) of granules in dissolution bath; type: physicochemical; details: granules stored at 40° C. and 75% RH for one month
Procedure: Focused Beam Reflectance Measurement (FBRM) analyses were conducted in dissolution studies. The FBRM technique involves the insertion of a probe directly into a process stream, at an angle, to ensure particles can flow easily across the probe window where the measurement takes place. A laser beam is launched down the probe tube through a set of optics and focused to a tight beam spot at the sapphire window. The optics rotate at a fixed speed (typically 2 m/s) resulting in the beam spot rapidly scanning across particles as they flow past the window. As the focused beam scans across the particle system, individual particles or particle structures will backscatter the laser light to the detector. These distinct pulses of backscattered light are detected, counted, and the duration of each pulse is multiplied by the scan speed to calculate the distance across each particle. This distance is defined as the chord length, a fundamental measurement of the particle related to the particle size, and a precise and highly sensitive chord length distribution can be reported in real time, thus tracking how particle size and count change over time. […]
The integration time was set to 5 seconds. […] From that dataset kinetic curves were calculated showing different size fractions and the fraction 40-100 μm was the fraction selected for comparison. […]

[3] = Mercury intrusion porosimetry (pore volume, pore size distribution); type: physicochemical
Procedure: The pore volume and the pore size distribution were determined using mercury intrusion porosimetry (Micromeritics AutoPore III 9410). The determination was performed within the pore diameter interval 115 μm≥ϕ≥0.0030 μm (30 Å). The surface tension and the contact angle of mercury are set to 485 mN/m and 130°, respectively. Blank correction has been used to compensate for compaction of parts of the penetrometer system at high pressures. The test materials used were: ticagrelor granules (“3606”), final tablet blend (“3606 FB”); F-melt type C granules (“F-melt”); Ticagrelor particles from supplier 1 (“AZ”); Ticagrelor particles from supplier 2 (“DSM”); Ticagrelor particles from supplier 3 (“Omnichem”).
One of the penetrometers used for analysis of the granules was used for the reference test. The result gave a cumulative pore volume of 0.55 cm^3/g and a median pore diameter (based on volume) of 73 Å. The reference values are 0.56±0.02 cm^3/g and 75±5 Å, respectively.

[4] = Powder flow indices (Carr's index, Hausner ratio); type: physicochemical; details: ticagrelor powders
From the text: Ticagrelor powders are characterised by poor flowability, for example as indicated by a large Hausner ratio (tap density/bulk density ˜1.8-2.0).

[5] = plasma, single 90 mg ticagrelor dose, fasted, range across treatments
[6] = pores <8, post-storage 1 month at 40° C./75% RH
[7] = pores >8, post-storage 1 month at 40° C./75% RH

SMILES | median tmax ([1]; plasma, single 90 mg ticagrelor dose, fasted, across OD (with water, without water, NG tube) and IR tablets) | terminal mean t1/2λz [1, 5] | Plasma metabolite AUC as % of plasma ticagrelor AUC ([1]; range across treatments) | Plasma metabolite Cmax as % of plasma ticagrelor Cmax ([1]; range across treatments) | Particle dissolution by FBRM after storage compared with non-stored granules [2] | Median pore diameter (vol) [3, 6] | Pore area [3, 6] | Pore volume [3, 6] | Median pore diameter (vol) ([3]; pores <8, pre-storage) | Pore area ([3]; pores <8, pre-storage) | Pore volume ([3]; pores <8, pre-storage) | Median pore diameter (vol) [3, 7] | Pore area [3, 7] | Pore volume [3, 7] | Median pore diameter (vol) ([3]; pores >8, pre-storage) | Pore area ([3]; pores >8, pre-storage) | Pore volume ([3]; pores >8, pre-storage) | Hausner ratio (tap density/bulk density) [4] | Tmax ([1]; both sexes, human, oral, plasma, single 90 mg ticagrelor dose, fasted, across OD (with water, without water, NG tube) and IR tablets, read-out: median tmax)
CCCSc1nc(N[C@@H]2C[C@H]2c2ccc(F)c(F)c2)c2nnn([C@@H]3C[C@H](OCCO)[C@@H](O)[C@H]3O)c2n1 [AZ] |  |  |  |  | slower particle dissolution | 1.1 μm | 14 m^2/g | 0.23 cm^3/g | 0.9 μm | 14 m^2/g | 0.23 cm^3/g | 27 μm | 0.1 m^2/g | 0.69 cm^3/g | 24 μm | 0.1 m^2/g | 0.62 cm^3/g |  | 
CCCSc1nc(N[C@@H]2C[C@H]2c2ccc(F)c(F)c2)c2nnn([C@@H]3C[C@H](OCCO)[C@@H](O)[C@H]3O)c2n1 [ticagrelor, (1S,2S,3R,5S)-3-[7-{[(1R,2S)-2-(3,4-difluorophenyl)cyclopropyl]amino}-5-(propylthio)-3H[1,2,3]-triazolo[4,5-d]pyrimidin-3-yl]-5-(2-hydroxyethoxy)cyclopentane-1,2-diol] |  | 7.99 to 8.21 h |  |  |  |  |  |  |  |  |  |  |  |  |  |  |  | 1.8-2.0 | ~2 h
CCCSc1nc(N[C@@H]2C[C@H]2c2ccc(F)c(F)c2)c2nnn([C@@H]3C[C@H](OCCO)[C@@H](O)[C@H]3O)c2n1 [DSM] |  |  |  |  |  | 1.5 μm | 12 m^2/g | 0.29 cm^3/g | 1.2 μm | 13 m^2/g | 0.28 cm^3/g | 20 μm | 0.1 m^2/g | 0.64 cm^3/g | 19 μm | 0.1 m^2/g | 0.59 cm^3/g |  | 

Next, values leading:

median tmax ([1]; plasma, single 90 mg ticagrelor dose, fasted, across OD (with water, without water, NG tube) and IR tablets) | terminal mean t1/2λz [1, 5] | Plasma metabolite AUC as % of plasma ticagrelor AUC ([1]; range across treatments) | Plasma metabolite Cmax as % of plasma ticagrelor Cmax ([1]; range across treatments) | Particle dissolution by FBRM after storage compared with non-stored granules [2] | Median pore diameter (vol) [3, 6] | Pore area [3, 6] | Pore volume [3, 6] | Median pore diameter (vol) ([3]; pores <8, pre-storage) | Pore area ([3]; pores <8, pre-storage) | Pore volume ([3]; pores <8, pre-storage) | Median pore diameter (vol) [3, 7] | Pore area [3, 7] | Pore volume [3, 7] | Median pore diameter (vol) ([3]; pores >8, pre-storage) | Pore area ([3]; pores >8, pre-storage) | Pore volume ([3]; pores >8, pre-storage) | Hausner ratio (tap density/bulk density) [4] | Tmax ([1]; both sexes, human, oral, plasma, single 90 mg ticagrelor dose, fasted, across OD (with water, without water, NG tube) and IR tablets, read-out: median tmax) | SMILES
2 to 3 h | 9.35 to 9.48 h | 38.2-40.5% | 27.1-30.0% |  |  |  |  |  |  |  |  |  |  |  |  |  |  |  | CCCSc1nc(N[C@@H]2C[C@H]2c2ccc(F)c(F)c2)c2nnn([C@@H]3C[C@H](O)[C@@H](O)[C@H]3O)c2n1 [AR-C124910XX]
 |  |  |  |  | 0.5 μm | 9 m^2/g | 0.18 cm^3/g | 0.5 μm | 12 m^2/g | 0.28 cm^3/g | 36 μm | <0.1 m^2/g | 0.61 cm^3/g | 35 μm | <0.1 m^2/g | 0.53 cm^3/g |  |  | CCCSc1nc(N[C@@H]2C[C@H]2c2ccc(F)c(F)c2)c2nnn([C@@H]3C[C@H](OCCO)[C@@H](O)[C@H]3O)c2n1 [Omnichem]

Source: US10729655B2, “Orally disintegrating tablets” (AstraZeneca AB, priority 2016, dated 2020)
